Test [1] concerns the target recombinant human mPGES-1 (Homo sapiens (Human), UniProt O14684). The experiment in a line: mPGES-1 enzyme assay (HTRF detection of PGE2). Type of test: biochemical. The following applies: recombinant human mPGES-1 microsomes, PGH2 2 μM, 60 seconds; read-out: mPGES-1 inhibitory effect IC50 in the enzyme assay. The protocol: Microsomes from Rosetta E. coli bacteria expressing recombinant human mPGES-1 can be derived as described below:
Inoculate 5 ml LB with Ampicilin (50 μg/ml) and Chloramphenicol (34 μg/ml) with bacteria from freeze culture. Incubate 8 h at 37° C. with 200 rpm. Thereafter, inoculate 500-1000 ml LB containing Amp and Chloro with the 5 ml on culture and grow to OD640 of 0.8-1.0. Chill the culture to +4° C. before induction. Induce the culture with IPTG at a final concentration of 400 μM. Express the protein at room temp 18-23° C. with 200 rpm shaking over night.
The following steps can be performed on the following day: • 1. Spin down the cells in 250 ml centrifuge flasks for 15 min at 7000 rpm (Beckmann Coulte Avanti J-E centrifuge) • 2. Dissolve the pellet from 250 ml culture in 12.5 ml homogenization buffer • 3. (15 mM Tris-HCL pH8, 1 mM EDTA pH8, […], 2.5 mM GSH, 1 Tablet Protease inhibitor per 50 ml buffer) • 4. Disintegrate the cells by sonication, 5×10 seconds at 48% amplitude of a 750 W sonifier • 5. Add 2.5 ml MgCl2 (100 mM) and DNase 12.5 μl (0.8 mg/ml) and incubate on ice for 30 min • 6. Spin down the bacteria debris and save the supernatant, 7000 rpm for 15 min • 7. Isolate the protein containing membranes in the supernatant by ultracentrifugation 120000×g for 2 hour at 4° C. (Sorvall T880 rotor). • 8. Discard the supernatant and dissolve the pellet in 20 mM Potassium phosphate buffer pH7.4 (KH2PO4 and K2HPO4) buffer by sonication (5×10 s, 30% of a 50 W sonifier) and aliquot the enzyme and store aliquots at −80° C.
Before each experiment is performed an aliquot of the enzyme is thawed and it can then be dissolved in 0.1 M Potassium phosphate buffer pH7.4 (KH2PO4 and K2HPO4) buffer containing 2.5 mM GSH.
The aim of this assay is to determine the affinity of a test compound for the mPGES-1 enzyme.
47 μl of recombinant human mPGES-1 (˜0.5 μg protein/well) containing microsomal suspension in a buffer containing GSH, (2.5 mmol/L L-Glutathione reduced, dissolved in 0.1 mol/L Phosphat Buffer pH 7.4) is dispensed in a 384-well plate and thereafter 1 μl of the test compound(s) is/are added and incubated for 25 minutes at room temperature. The enzyme reaction is started by the addition of 2 ul PGH2 (final conc 2 μM) disolved in water-free Diglyme. After 60 seconds the reaction is terminated by addition of a stop solution containing FeCl2 (10 μL 0.074 mol/l FeCl2). The samples are diluted between 1:25 in PBS (Phosphate Buffered Saline). 10 μl of the diluted samples are transferred to 384-well low volume plate. In order to quantify the amount of PGE2 that has been formed, a homogenous time resolved fluorescent (HTRF) detecting of PGE2 has been performed using a commercially available kit from Cisbio according to the manufactures recommendation. This HTRF-based assay has been described in detail (see: Goedken et al., J Biomol Screen, 2008, 13(7), 619-625). Briefly, the diluted samples are mixed with 5 μl PGE2-d2 conjugate and 5 μl anti-PGE2 cryptate conjugate. After an incubation period of the plates over night, the fluorescence is measured by the use of an appropriate microplate reader.
The fluorescence of Europium cryptate (maxex=307 nm, maxem=620 nm) and d2-PGE2 (maxex=620 nm, maxem=665 nm) are measured.
The extent of the specific HTRF is measured as a ratio of the emission intensity at 665 nm vs. that at 620 nm at an excitation puts of 320 nm. The quantification plate contains also wells with different concentrations of PGE2 as calibration curve for the calculation of the PGE2 concentrations from the HTRF ratio values.
From all mPGES enzyme assay the background is subtracted and the IC50 is calculated over a nonlinear regression with conventional software.

For test [2], the target named is mPGES-1 in A549 cells (Homo sapiens (Human), UniProt O14684). Nature of the test: A549 cell-based assay (PGE2 formation, 50% human serum). The conditions noted are these: IL-1β 5 ng/ml, 10 nM arachidonic acid, 20-24 h, read-out: mPGES-1 inhibitory effect IC50 in the cell assay. The essentials: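 PGE2 release, read by HTRF and set to 100% for vehicle, gave IC50s from 6-8 point titrations. Human A549 cells were exposed to compound for 20-24 h in medium with 50% human serum, with IL-1β (5 ng/ml) and arachidonic acid (10 nM) as stimulus.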

Structures are written as SMILES. Some results are limits rather than exact numbers.

The IC50 is the point on the concentration scale where inhibition reaches its midpoint.

Chain of mPGES-1 in A549 cells (O14684 whole entry): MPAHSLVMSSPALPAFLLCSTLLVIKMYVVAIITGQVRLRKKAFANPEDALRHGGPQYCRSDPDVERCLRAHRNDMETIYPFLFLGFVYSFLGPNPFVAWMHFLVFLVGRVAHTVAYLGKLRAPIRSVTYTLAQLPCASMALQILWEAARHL
Chain of recombinant human mPGES-1 (O14684 whole entry): as above

For the compound `Cn1c(Nc2c(Cl)ccc(CNC(=O)C(C)(C)F)c2Cl)nc2cc(C(=O)N[C@H]3CC[C@H](C(F)(F)F)CC3)c(N3CC[C@@H](F)C3)cc21` [Example 120], the IC50 in test [1] worked out at 3 nM; in test [2], 1 nM.
For `Cn1c(Nc2c(Cl)ccc(CNC(=O)C(C)(C)C)c2Cl)nc2cc(C(=O)N[C@H]3CC[C@H](C(F)(F)F)CC3)c(N3CCNC(C(F)(F)F)C3)cc21` (stereo partly drawn) [Example 131], the IC50 in test [1] worked out at 2 nM; in test [2], 1 nM.
`Cn1c(Nc2c(Cl)ccc(CNC(=O)C(C)(C)F)c2Cl)nc2cc(C(=O)NCCC(F)(F)F)c(N3CCC(O)CC3)cc21` [Example 148]: the IC50 turned out to be 3 nM in test [1] and 20 nM in test [2].
`CN(CC(F)F)c1cc2c(cc1C(=O)Nc1ccc(OC(F)(F)F)cc1)nc(Nc1c(Cl)ccc(CNC(=O)C(C)(C)C)c1Cl)n2C` [Example 137]: the IC50 was 3 nM in test [1] and below 1 nM in test [2].
Turning to `Cn1c(Nc2c(Cl)ccc(CNC(=O)C(C)(C)C)c2Cl)nc2cc(C(=O)N[C@H]3CC[C@H](C(F)(F)F)CC3)c(N3CC(C)(O)C3)cc21` [Example 86], the values for the IC50 in test [1] and in test [2] were 4 nM and 5 nM, respectively.
As to `Cn1c(Nc2c(Cl)ccc(CNC(=O)C(C)(C)C)c2Cl)nc2cc(C(=O)N[C@H]3CC[C@H](C(F)(F)F)CC3)c(N3CCOCC3)cc21` [Example 67], the values for the IC50 in test [1] and in test [2] were 4 nM and 2 nM, respectively.
The like results for `Cn1c(Nc2c(Cl)ccc(CNC(=O)C(C)(C)C)c2Cl)nc2cc(C(=O)N[C@H]3CC[C@H](C(F)(F)F)CC3)c(N3CC4CCC(C3)O4)cc21` [Example 134] were, in that order, 2 nM and below 1 nM.
With `Cn1c(Nc2c(Cl)ccc(CNC(=O)C(C)(C)C)c2Cl)nc2cc(C(=O)N[C@H]3CC[C@H](C(F)(F)F)CC3)c(N3CC(F)(F)C3)cc21` [Example 21], the IC50 in test [1] came to 4 nM; in test [2], 2.5 nM.
Take `CC(C)(C)C(=O)NCc1ccc(Cl)c(Nc2nc3cc(C(=O)NCC(F)(F)C(F)(F)F)c(N4CCC(F)(F)CC4)cc3n2CC(F)F)c1Cl` [Example 74]: the IC50 in test [1] was 3 nM; in test [2], 4 nM.
The corresponding values for `Cn1c(Nc2c(Cl)ccc(CNC(=O)C(C)(C)C)c2Cl)nc2cc(C(=O)N[C@H]3CC[C@H](C(F)(F)F)CC3)c(N3CC[C@@H](F)C3)cc21` [Example 19] are 3 nM and 1 nM.
Turning to `Cn1c(Nc2c(Cl)ccc(CNC(=O)C(C)(C)C)c2Cl)nc2cc(C(=O)N[C@H]3CC[C@H](C(F)(F)F)CC3)c(N3CC4(COC4)C3)cc21` [Example 93], the IC50 was found to be 3 nM in test [1] and 17 nM in test [2].
The corresponding values for `Cn1c(Nc2c(Cl)ccc(CNC(=O)C(C)(C)C)c2Cl)nc2cc(C(=O)Nc3ccc(OC(F)(F)F)cc3)c(N3CCCC(C(F)(F)F)C3)cc21` (stereo not drawn) [Example 136] are 3 nM and 1 nM.
With `Cn1c(Nc2c(Cl)ccc(CNC(=O)C(C)(C)C)c2Cl)nc2cc(C(=O)N[C@H]3CC[C@H](C(F)(F)F)CC3)c(N3CC4CCC4C3)cc21` (stereo partly drawn) [Example 122], the IC50 was 3 nM in test [1] and 1 nM in test [2].
For the compound `CN(Cc1nccn1C)c1cc2c(cc1C(=O)N[C@H]1CC[C@H](C(F)(F)F)CC1)nc(Nc1c(Cl)ccc(CNC(=O)C(C)(C)C)c1Cl)n2C` [Example 88], the IC50 came out at 2 nM in test [1] and 1.5 nM in test [2].
For the compound `Cn1c(Nc2c(Cl)ccc(CNC(=O)C(C)(C)F)c2Cl)nc2cc(C(=O)Nc3ccc(OC(F)(F)F)cc3)c(N3CCC(C(F)(F)F)CC3)cc21` [Example 237], the IC50 in test [1] was 1.8 nM; in test [2] it was below 1 nM.
With `Cn1c(Nc2c(Cl)ccc(CNC(=O)c3nccs3)c2Cl)nc2cc(C(=O)NCCC(F)(F)F)c(N3CCC(C(F)(F)F)CC3)cc21` [Example 182], the IC50 in test [1] was 2 nM; in test [2], 7 nM.
Turning to `Cn1c(Nc2c(Cl)ccc(CNC(=O)C(C)(C)C)c2Cl)nc2cc(C(=O)Nc3ccc(OC(F)(F)F)cc3)c(N3CCC(F)(F)C3)cc21` [Example 35, N-(4-Trifluoromethoxy-phenyl)-2-{2,6-dichloro-3-[(2,2-dimethyl-propionylamino)-methyl]-phenylamino}-6-[3,3-difluoro-pyrrolidinyl]-1-methyl-1H-benzimidazole-5-carboxylic acid amide], the IC50 in test [1] was determined as 2 nM; in test [2] it was 1 nM.
Turning to `CN(c1cc2c(cc1C(=O)N[C@H]1CC[C@H](C(F)(F)F)CC1)nc(Nc1c(Cl)ccc(CNC(=O)C(C)(C)C)c1Cl)n2C)C1CCSC1` (stereo partly drawn) [Example 117, N-(trans-4-trifluoromethyl-cyclohexyl)-2-{2,6-dichloro-3-[(2,2-dimethyl-propionylamino)-methyl]-phenylamino}-6-[N-methyl-N-(tetrahydro-thiophen-3-yl)-amino]-1-methyl-1H-benzimidazole-5-carboxylic acid amide], the IC50 in test [1] and in test [2] was 2 nM each time.
As to `CC(C)C(NC(=O)c1cc2nc(Nc3c(Cl)ccc(CNC(=O)C(C)(C)C)c3Cl)n(C)c2cc1N1CCC(F)(F)C1)C(F)(F)F` (stereo not drawn) [Example 49], the IC50 in test [1] and in test [2] was 4 nM in each case.
Consider `CC(NC(=O)c1cc2nc(Nc3c(Cl)ccc(CNC(=O)C(C)(C)C)c3Cl)n(C)c2cc1N1CCC(F)(F)C1)c1cccs1` (stereo not drawn) [Example 36], for which the IC50 is 5 nM in test [1] and 6.5 nM in test [2].
The like results for `CN(CCC(F)(F)F)c1cc2c(cc1C(=O)NCC(F)(F)F)nc(Nc1c(Cl)ccc(CNC(=O)C(C)(C)C)c1Cl)n2C` [Example 34] were, in that order, 3 nM and 1 nM.
Take `Cn1c(Nc2c(Cl)ccc(CNC(=O)C(C)(C)C)c2Cl)nc2cc(C(=O)N[C@H]3CC[C@H](C(F)(F)F)CC3)c(N3CCC(O)C3)cc21` (stereo partly drawn) [Example 84]: the results for the IC50 in test [1] and in test [2] were 3 nM and 16 nM, respectively.
In the case of `Cn1c(Nc2c(Cl)ccc(CNC(=O)C(C)(C)C)c2Cl)nc2cc(C(=O)N[C@H]3CC[C@H](C(F)(F)F)CC3)c(N3CCCC(C(F)(F)F)C3)cc21` (stereo partly drawn) [Example 89], the IC50 in test [1] was 2 nM; in test [2] it was 1 nM.
As for `Cn1c(Nc2c(Cl)ccc(CNC(=O)C(C)(C)C)c2Cl)nc2cc(C(=O)N[C@H]3CC[C@H](C(F)(F)F)CC3)c(N3CCN(CC(F)(F)F)CC3)cc21` [Example 132], the IC50 in test [1] stood at 5 nM; in test [2], 1.5 nM.
On to `Cn1c(Nc2c(Cl)ccc(CNC(=O)C(C)(C)F)c2Cl)nc2cc(C(=O)Nc3cccc(C(F)(F)F)n3)c(N3CCC(C(F)(F)F)CC3)cc21` [Example 242], for which the IC50 in test [1] came out at 1.7 nM; in test [2] it was 5 nM.
With `CC(C)(O)Cn1c(Nc2c(Cl)ccc(CNC(=O)C(C)(C)C)c2Cl)nc2cc(C(=O)N[C@H]3CC[C@H](C(F)(F)F)CC3)c(N3CCC(C(F)(F)F)CC3)cc21` [Example 165], the IC50 in test [1] stood at 2 nM; in test [2], 3 nM.
As to `CN(c1cc2c(cc1C(=O)NCCC(F)(F)F)nc(Nc1c(Cl)ccc(CNC(=O)C(C)(C)F)c1Cl)n2C)C1CCC1` [Example 149], the IC50 in test [1] and in test [2] was 3 nM each time.

The values above are taken from patent US8674113B2, “Compounds” (Boehringer Ingelheim International GmbH, priority 2010, dated 2014).
